In test [1] the test system is Nitrososphaera viennensis. Nature of the test: Nitrification inhibition assay on Nitrososphaera viennensis (nitrite, Griess). It counts as cell-based, Nitrososphaera viennensis EN76T. To be noted: Nitrososphaera viennensis; 2.5 µM compound; structural variants outside formula (I); read-out: Relative nitrification (%) by Nitrososphaera viennensis treated with 2.5 µM compound. As to the method: Nitrite (NO2—) was measured using the Griess reagent (Product number: G4410, Griess reagent (modified), Sigma-Aldrich). Equal volumes of the sample or a diluted sample and the Griess reagent were mixed a transparent flat bottom multi-well plate and incubated in the dark at room temperature for 10 minutes. Absorbance values at 540 nm were measured spectrophotometrically (EnVision, Perkin Elmer®) and used to calculate the [NO2—] by use of a standard curve.
A liquid culture sample of Nitrososphaera viennensis EN76T was kindly supplied by prof. dr. Christa Schleper (University of Vienna). Cells were grown in fresh water medium (FWM) as described earlier by Tourna et al. (2011). All necessary materials were rinsed with 1 % HCl and washed at least 3 times with MilliQ water. FWM (pH 7.5 (KOH)) contained 17 mM NaCl, 3 mM MgCl2 × 2 H2O, 680 µM CaCl2 × 2 H2O, 1.47 mM KH2PO4 and 6.71 mM KCI. After autoclaving, successively 1 mL non-chelated trace element mixture (101 mM HCl, 488 µM H3BO3, 508 µM MnCl2 × 4 H2O, 803 µM CoCl2 × 6 H2O, 101 µM NiCl2 × 6 H2O, 12 µM CuCl2 × 2 H2O, 503 µM ZnSO4 × 7 H2O and 150 µM Na2MoO4 × 2 H2O), 1 mL Fe-NaEDTA (7.5 mM), 1 mL vitamin solution (20 mg/L biotin, 20 mg/L folic acid, 100 mg/L pyridoxine-HCl, 50 mg/L thiamine-HCl, 50 mg/L riboflavin, 50 mg/L nicotinic acid, 50 mg/L DL-pantothenic acid, 50 mg/L P-aminobenzoic acid, 2 g/L choline chloride and 10 mg/L vitamin B12), 2 mL NaHCO3 (1 M), 2 mL kanamycin (100 mg/mL), 2 mL carbenicillin (100 mg/mL), 3 mL NH4Cl (1 M), 10 mL HEPES buffer (1 M, pH 7.6) and 1 mL Na-pyruvate (0.1 M) were added aseptically. All stock-solutions were filter-sterilized, except the autoclaved non-chelated trace element mixture. Cultures were incubated aerobically at 42° C. without shaking in sterile 250-mL Erlenmeyer flasks or 30-mL cultivation tubes (Product number: 216-1290, Quickstart universal containers STERILIN®, VWR) filled with either 100 or 20 mL FWM and sealed with tape (Micropore™ Surgical Tape 1530-1, 3M™). Late-log phase cultures ([NO2-] ≥ 1 mM) were subcultivated by dilution (1:400) in fresh FWM.
7-day old 100 mL cultures grown in 250-mL Erlenmeyer flasks with a [NO2-] ≥ 1 mM were 5 times overconcentrated in fresh FWM by centrifugation (4000 rpm, 15 min, 5° C.) in 50 mL centrifuge tubes (Cat. No. 430829, CentriStar™ Conical Centrifuge Tubes, Corning®). Per batch, all the cultures were pooled in one sterile Schott bottle. Subsequently, 200 µl/well was dispensed at low pipetting speed in transparent flat bottom 96-well plates (Cat. No. 353072, Falcon® 96 Well Clear Microplate, Corning®) using 150 µl wide-bore tips (two steps of 100 µl) on a Tecan robot (Freedom EVO®, Tecan). 0.5 µl of 99.99 % DMSO (negative control - final concentration 0.25%) and 0.5 µl of 0.04 M PTIO (2-phenyl-4,4,5,5-tetramethylimidazoline-1-oxyl 3-oxide, positive control - final concentration 100 µM) were added manually to the first and last column respectively. Finally, 0.5 µl of candidate nitrification inhibitors (1 mM stock solutions in 99.99% DMSO - final concentration 2.5 µM) were added to the central wells using a pin tool on a Tecan robot (Freedom EVO®, Tecan). In between additions, the pins were washed in sequence with 99.5% DMSO, MilliQ water and 100% ethanol and air-dried. All plates were sealed with tape (Micropore™ Surgical Tape 1530-1, 3M™), stacked per 4 on top of a 96-well plate filled with 100 µl MilliQ per well and covered with aluminum foil. Position effects of the stacks within the incubator were considered. Plates were incubated at 42° C. without shaking. 24 h later, NO2— was measured spectrophotometrically at 540 nm (EnVision, Perkin Elmer®). […]

The test system of test [2] is ABIL (ammonia-binding liquid inoculum), nitrifying microbial enrichment containing both AOA and AOB. Description: Nitrification inhibition assay on ABIL (ammonium consumption). It is filed as cell-based. To be noted: 10 µM compound; structural variants outside formula (I); read-out: Relative nitrification (%) by ABIL treated with 10 µM compound.

As to `CC(C)n1ncc2cc(NC(=O)N3CCN(S(=O)(=O)N4CCCCCC4)CC3)cnc21` [Example 83], the activity at 2.5 µM in test [1] amounted to 100%. Further, in test [2], the activity at 10 µM is 100%.
On to `CC(C)n1ncc2cc(C(=O)Nc3ccnn3Cc3ccc(Cl)cc3Cl)cnc21` [Example 84], for which the activity at 2.5 µM in test [1] was found to be 100%. Besides, in test [2], the activity at 10 µM worked out at 100%.
For `CC(C)n1ncc2cc(C(=O)N(C)Cc3nc4ccccc4s3)cnc21` [Example 85], in test [1], the activity at 2.5 µM came to 100%. Moreover, in test [2], the activity at 10 µM turned out to be 100%.
In the case of `Cc1cc(C)nc(-n2nc(C)c3c(C(F)(F)F)cc(-c4cccnc4)nc32)n1` [Example 86], the activity at 2.5 µM in test [1] stood at 94%. Further, in test [2], the activity at 10 µM was 100%.
With `CC(=O)c1ccc(OCC(=O)Nc2cnc3c(cnn3C(C)C)c2)cc1` [Example 87], the activity at 2.5 µM in test [1] is 93%. Besides, the activity at 10 µM in test [2] came to 100%.
Consider `CC(C)n1ncc2cc(NC(=O)CN(C)S(=O)(=O)c3cccs3)cnc21` [Example 88], for which the activity at 2.5 µM in test [1] is 94%. Also, the activity at 10 µM in test [2] is 100%.
The matching figures for `C=CCNC(=O)c1cnc2c(cnn2C(C)C)c1` [Example 89]: 100% and 100%.
As for `Cc1nc2c(cnn2C(C)C)cc1C(=O)NC(C)C1CCCO1` (stereo not drawn) [Example 90], the activity at 2.5 µM in test [1] stood at 93%. Also, the activity at 10 µM in test [2] worked out at 100%.
Regarding `Cc1nc2c(cnn2C(C)C)cc1C(=O)N1CCCN(C)c2nc3ccccc3nc21` [Example 91], the activity at 2.5 µM in test [1] worked out at 100%. Besides, the activity at 10 µM in test [2] came out at 100%.
As for `CCN(Cc1nc2ccccc2c(=O)[nH]1)C(=O)CCc1c(C)nc2c(cnn2C(C)C)c1C` [Example 92], the activity at 2.5 µM in test [1] was 100%. Moreover, the activity at 10 µM in test [2] turned out to be 100%.
Turning to `COc1ccccc1CN(C)C(=O)c1cc2cnn(C(C)C)c2nc1C` [Example 93], in test [1], the activity at 2.5 µM turned out to be 100%. The activity at 10 µM in test [2] came to 100%.
In the case of `CC(C)n1ncc2cc(CNc3ccc4[nH]ncc4c3)cnc21` [Example 94], the activity at 2.5 µM in test [1] was found to be 100%. Besides, the activity at 10 µM in test [2] turned out to be 92%.
The like results for `Cc1sc2nc(CN3CCCC3)nc(Nc3ccc4cn[nH]c4c3)c2c1C` [Example 95] were, in that order, 96% and 97%.
Take `N#Cc1nn(CN2CCSCC2)c2ccc(Cl)cc12` [Example 96]: the activity at 2.5 µM in test [1] stood at 96%. In test [2], the activity at 10 µM is 85%.
Take `CCCCc1nnc(NC(=O)c2n[nH]c3ccccc23)s1` [Example 97]: the activity at 2.5 µM in test [1] stood at 100%. Besides, in test [2], the activity at 10 µM is 86%.
The like results for `O=C(NCCc1ccccc1)c1n[nH]c2ccccc12` [Example 98] were, in that order, 100% and 89%.
As for `Clc1ccc2c(Nc3ccc4[nH]ncc4c3)ncnc2c1` [Example 99], the activity at 2.5 µM in test [1] was 100%. In addition, in test [2], the activity at 10 µM was determined as 90%.
For `COC(=O)c1cc(CNC(=O)c2n[nH]c3ccccc23)ccc1OC` [Example 100], in test [1], the activity at 2.5 µM amounted to 96%. Further, in test [2], the activity at 10 µM came out at 90%.
With `COC(=O)c1n[nH]c2ccc(NS(=O)(=O)c3ccc(Cl)c(Cl)c3)cc12` [Example 101], the activity at 2.5 µM in test [1] was determined as 94%. In test [2], the activity at 10 µM was found to be 90%.
The matching figures for `O=S(=O)(CCC1CC1)Nc1n[nH]c2cccc(F)c12` [Example 102]: 100% and 90%.
The matching figures for `CCC(CC)c1nnc(NC(=O)c2n[nH]c3ccccc23)s1` [Example 103]: 100% and 91%.
For `Cc1ccc2[nH]nc(C(=O)N3CCS(=O)(=O)C(C)(C)C3)c2c1` [Example 104], in test [1], the activity at 2.5 µM was 100%. Moreover, the activity at 10 µM in test [2] was determined as 93%.
Take `c1ccc(N2CCOCC2)c(CNc2ccc3[nH]ncc3c2)c1` [Example 105]: in test [1], the activity at 2.5 µM amounted to 100%. Also, the activity at 10 µM in test [2] came out at 94%.
On to `O=S1(=O)CCCN1c1cccc(NCc2cccc3cn[nH]c23)c1` [Example 106], for which, in test [1], the activity at 2.5 µM came to 100%. In test [2], the activity at 10 µM was 94%.
As to `COc1ccc(S(=O)(=O)Nc2cccc3cn[nH]c23)c(NS(=O)(=O)C(F)F)c1` [Example 107], the activity at 2.5 µM in test [1] was 100%. In test [2], the activity at 10 µM was found to be 96%.
In the case of `CC(O)CCN(C)S(=O)(=O)c1ccc2cn[nH]c2c1` (stereo not drawn) [Example 108], the activity at 2.5 µM in test [1] stood at 100%. Further, the activity at 10 µM in test [2] came out at 97%.
In the case of `Cc1ccc2[nH]nc(C(=O)N3CC[S+]([O-])C(C)(C)C3)c2c1` (stereo not drawn) [Example 109], in test [1], the activity at 2.5 µM is 100%. Moreover, the activity at 10 µM in test [2] is 97%.
For `CC(CNC(=O)c1cccc2[nH]ncc12)CC1(C)OCCO1` (stereo not drawn) [Example 110], the activity at 2.5 µM in test [1] came out at 100%. Moreover, in test [2], the activity at 10 µM was 97%.
The like results for `O=C(NC1=NCCS1)c1n[nH]c2ccccc12` [Example 111] were, in that order, 95% and 98%.
`Fc1cccnc1N1CCC(NCc2cccc3cn[nH]c23)C1` (stereo not drawn) [Example 112]: in test [1], the activity at 2.5 µM was determined as 100%. The activity at 10 µM in test [2] worked out at 98%.
On to `O=S(=O)(Nc1cccc2[nH]ncc12)N1CCCCC1` [Example 113], for which the activity at 2.5 µM in test [1] was 100%. In addition, in test [2], the activity at 10 µM was 98%.
The matching figures for `O=C(O)CC1CSCCN1C(=O)c1cccc2cn[nH]c12` (stereo not drawn) [Example 114]: 100% and 98%.
With `Cc1nccc(Nc2ccc3[nH]ncc3c2)n1` [Example 115], the activity at 2.5 µM in test [1] turned out to be 96%. Also, the activity at 10 µM in test [2] was 98%.
Regarding `O=C1NCCN1c1cccc(NCc2cccc3cn[nH]c23)c1` [Example 116], in test [1], the activity at 2.5 µM worked out at 96%. The activity at 10 µM in test [2] came out at 99%.
On to `CC1(C)CN(C(=O)c2n[nH]c3ccccc23)CCS1(=O)=O` [Example 117], for which the activity at 2.5 µM in test [1] was determined as 100%. For the same compound, in test [2], the activity at 10 µM stood at 99%.
Regarding `O=S(=O)(Nc1ccc2cn[nH]c2c1)c1ccc(S(=O)(=O)N2CCCC2)cc1` [Example 118], the activity at 2.5 µM in test [1] was 100%. Further, the activity at 10 µM in test [2] is 99%.
In the case of `O=C(CC1CCCCCC1)c1n[nH]c2ccccc12` [Example 119], the activity at 2.5 µM in test [1] is 100%. The activity at 10 µM in test [2] is 99%.
Turning to `C#CCOCCC(=O)Nc1n[nH]c2c(Cl)cccc12` [Example 120], in test [1], the activity at 2.5 µM is 98%. The activity at 10 µM in test [2] stood at 100%.
On to `COc1ccc(OCCC(=O)Nc2n[nH]c3ccccc23)cc1` [Example 121], for which the activity at 2.5 µM in test [1] was 100%. Besides, the activity at 10 µM in test [2] is 100%.
Turning to `CCNC(=O)c1cccc(NC(=O)c2n[nH]c3ccccc23)c1` [Example 122], the activity at 2.5 µM in test [1] worked out at 95%. For the same compound, in test [2], the activity at 10 µM came to 100%.
For the compound `O=C(c1n[nH]c2ccccc12)N1CCSCC1` [Example 123], in test [1], the activity at 2.5 µM came to 92%. The activity at 10 µM in test [2] was 100%.
The matching figures for `O=C1NC(=S)S/C1=C\c1cccc2cn[nH]c12` [Example 124]: 99% and 100%.

Values taken from patent US20230357099A1, “PYRAZOLO [3,4-B] PYRIDINE-4-CARBOXAMIDE NITRIFICATION INHIBITOR” (EUROCHEM ANTWERPTEN, priority 2020, published 2023).
